Eleven compounds from paper PMC9146896, “Uracil as a Zn-Binding Bioisostere of the Allergic Benzenesulfonamide in the Design of Quinoline–Uracil Hybrids as Anticancer Carbonic Anhydrase Inhibitors” (Pharmaceuticals, 2022) can be followed below.

A word on the melting point: it is the temperature of the solid-liquid transition. The term IC50 denotes the concentration that inhibits the measured activity by half. The Ki is a measure of affinity in units of concentration, obtained from inhibition or displacement. The low end stands for tighter binding, the high end for weaker binding.

The target in data set [1] is hCA I (Homo sapiens, UniProt P00915). As to the kind of experiment: Carbonic anhydrase inhibition, colorimetric method (BioVision CA Inhibitor Screening Kit).
Data set [2] concerns the target hCA XII (Homo sapiens, UniProt O43570). The data set is described as above. The note with it: for Selectivity index I/XII: hCA XII over hCA I; for Selectivity index II/XII: hCA XII over hCA II.
Data set [3] addresses hCA II (Homo sapiens, UniProt P00918). The data set is described as above.
Data set [4] concerns the target hCA IX (Homo sapiens, UniProt Q16790). The description is as above. The note with it: for Selectivity index I/IX: hCA IX over hCA I; for Selectivity index II/IX: hCA IX over hCA II.
Data set [5] has as its system Bax. Description: Assessment of apoptotic marker levels: Bax in MCF-7. In kind it is cell-based. The text has this:
(§1) The two cytoplasmic proteins, B-cell lymphoma protein 2 (Bcl-2) and its associated X protein (Bax), are essential for apoptosis in normal cells. Bax is a promoter and Bcl-2 is an inhibitor of apoptosis. Thus, the effect of 10d and 10l on apoptotic markers Bax and Bcl-2 in a breast cancer cell line (MCF-7) and a lung cancer cell line (A549) has been estimated.

Data set [6] relates to breast cancer cell line (MCF-7). Description: Antiproliferative activity, MTT assay under hypoxic conditions. The note with it: Homo sapiens, MCF7, read-out: Cytotoxicity IC50 MCF7. A general note: Formazan colour is commonly taken as a measure of viable cells.
Data set [7] has as its system Bax. Description: Assessment of apoptotic marker levels: Bax in A549. In kind it is cell-based.
Text: as §1

For data set [8], the system named is Bcl-2. As to the kind of experiment: Assessment of apoptotic marker levels: Bcl-2 in A549. In kind it is cell-based.
Text: as §1

In data set [9] the test system is Bcl-2. Description: Assessment of apoptotic marker levels: Bcl-2 in MCF-7. In kind it is cell-based.
Text: as §1

Sequence of hCA XII (O43570 25-354): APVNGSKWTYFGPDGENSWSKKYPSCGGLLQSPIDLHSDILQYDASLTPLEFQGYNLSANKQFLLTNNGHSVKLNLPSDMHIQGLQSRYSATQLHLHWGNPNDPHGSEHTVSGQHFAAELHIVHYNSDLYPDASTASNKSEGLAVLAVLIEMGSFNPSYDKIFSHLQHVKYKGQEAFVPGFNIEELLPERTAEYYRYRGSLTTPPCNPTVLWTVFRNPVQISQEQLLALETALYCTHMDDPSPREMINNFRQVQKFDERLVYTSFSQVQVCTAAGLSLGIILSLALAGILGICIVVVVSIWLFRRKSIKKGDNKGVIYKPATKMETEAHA
Sequence of hCA I (P00915 whole entry): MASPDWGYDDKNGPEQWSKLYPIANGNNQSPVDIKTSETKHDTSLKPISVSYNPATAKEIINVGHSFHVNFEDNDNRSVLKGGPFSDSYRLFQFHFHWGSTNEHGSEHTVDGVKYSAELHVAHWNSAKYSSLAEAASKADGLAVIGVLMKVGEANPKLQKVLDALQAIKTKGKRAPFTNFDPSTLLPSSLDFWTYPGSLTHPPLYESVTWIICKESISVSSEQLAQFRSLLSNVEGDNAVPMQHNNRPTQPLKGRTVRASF

Compound `Nc1[nH]c(=O)[nH]c(=O)c1/N=C/c1cc2ccccc2[nH]c1=O` [Compound 10a, (E)-6-Amino-5-(((2-oxo-1,2-dihydroquinolin-3-yl)methylene)amino)pyrimidine-2,4(1H,3H)-dione] registered a melting point of 270 to 272 °C. In [1], this compound yielded an IC50 of 0.97 µM and a Ki of 0.53 µM. For the same compound, in [2], the IC50 is 0.32 µM, the Ki was 0.17 µM, the “Selectivity index I/XII” value worked out at 3.05 and the “Selectivity index II/XII” value is 1.65. Further, in data set [3], it took 0.52 µM to reach half-maximal inhibition (IC50) and the affinity, expressed as Ki, was 0.29 µM. In addition, in data set [4], the IC50 was 0.25 µM, affinity was put at a Ki of 0.14 µM, the “Selectivity index I/IX” value turned out to be 3.88 and the “Selectivity index II/IX” value was 2.09.
`Nc1c(/N=C/c2cc3ccccc3[nH]c2=O)c(=O)[nH]c(=O)n1Cc1ccccc1` [Compound 10b, (E)-6-Amino-1-benzyl-5-(((2-oxo-1,2-dihydroquinolin-3-yl)methylene)amino) pyrimidine-2,4(1H,3H)-dione] gave a melting point of 280 to 282 °C. In [1], this compound registered an IC50 of 1.01 µM and a Ki of 0.56 µM. In addition, in data set [2], inhibition was half-maximal at 0.35 µM (IC50), the Ki amounted to 0.19 µM, the “Selectivity index I/XII” value came to 2.88 and the “Selectivity index II/XII” value stood at 3.24. In [3], this compound came in with an IC50 of 1.14 µM and a Ki of 0.63 µM. In addition, in [4], 0.63 µM corresponded to half-maximal inhibition (IC50), the Ki was 0.35 µM, the “Selectivity index I/IX” value is 1.60 and the “Selectivity index II/IX” value came to 1.81.
`CCn1c(N)c(/N=C/c2cc3ccccc3[nH]c2=O)c(=O)[nH]c1=O` [Compound 10c, (E)-6-Amino-1-ethyl-5-(((2-oxo-1,2-dihydroquinolin-3-yl)methylene)amino)pyrimidine-2,4(1H,3H)-dione] registered a melting point of 290 to 292 °C. In addition, in data set [1], the IC50 amounted to 1.76 µM and the Ki is 0.97 µM. In data set [2], half-maximal inhibition (IC50) was put at 0.49 µM; the affinity, expressed as Ki, was 0.27 µM; the “Selectivity index I/XII” value is listed as 3.62; the “Selectivity index II/XII” value is 1.37. In [3], this compound registered an IC50 of 0.66 µM and a Ki of 0.37 µM. Also, in data set [4], the IC50 is 0.4 µM, the Ki stood at 0.22 µM, the “Selectivity index I/IX” value is recorded as 4.37 and the “Selectivity index II/IX” value came out at 1.65.
In turn, `Cn1c(N)c(/N=C/c2cc3ccccc3[nH]c2=O)c(=O)[nH]c1=S` [Compound 10e, (E)-3-(((6-Amino-1-methyl-4-Oxo-2-thioxo-1,2,3,4-tetrahydropyrimidin-5-yl)imino)methyl) quinolin-2(1H)-one] displayed a melting point of 284 to 286 °C. For the same compound, in [1], the IC50 was 1.25 µM and the inhibition constant (Ki) was 0.69 µM. In addition, in data set [2], half-maximal inhibition (IC50) required 0.59 µM, the Ki was found to be 0.33 µM, the “Selectivity index I/XII” value is 2.12 and the “Selectivity index II/XII” value was found to be 2.06. In [3], this compound came in with an IC50 of 1.21 µM and a Ki of 0.67 µM. In addition, in data set [4], the IC50 turned out to be 1.37 µM, the Ki amounted to 0.76 µM, the “Selectivity index I/IX” value is 0.91 and the “Selectivity index II/IX” value came to 0.88.
On to `CCn1c(N)c(/N=C/c2cc3cccc(C)c3[nH]c2=O)c(=O)[nH]c1=O` [Compound 10f, (E)-6-Amino-1-ethyl-5-(((8-methyl-2-oxo-1,2-dihydroquinolin-3-yl)methylene)amino)pyrimidine-2,4(1H,3H)-dione], for which the melting point lay within 278 to 280 °C. In data set [1], it took 0.33 µM to reach half-maximal inhibition (IC50) and the Ki came out at 0.18 µM. In data set [2], the IC50 worked out at 0.17 µM, the affinity corresponds to a Ki of 0.09 µM, the “Selectivity index I/XII” value came to 1.95 and the “Selectivity index II/XII” value is given as 4.72. In data set [3], this compound came in with an IC50 of 0.79 µM and a Ki of 0.44 µM. Also, in data set [4], the IC50 was found to be 0.27 µM; the affinity, expressed as Ki, was 0.14 µM; the “Selectivity index I/IX” value is 1.23; the “Selectivity index II/IX” value turned out to be 2.99.
Consider `Cc1cccc2cc(/C=N/c3c(N)n(C)c(=S)[nH]c3=O)c(=O)[nH]c12` [Compound 10g, (E)-3-(((6-Amino-1-methyl-4-oxo-2-thioxo-1,2,3,4-tetrahydropyrimidin-5-yl)imino)methyl)-8-methylquinolin-2(1H)-one], for which the melting point lay in the range of 265 to 267 °C. Moreover, in [1], half-maximal inhibition (IC50) was put at 2.16 µM and the Ki is 1.2 µM. In data set [2], the IC50 came to 0.33 µM, the Ki is 0.18 µM, the “Selectivity index I/XII” value is recorded as 6.47 and the “Selectivity index II/XII” value was 10.05. In addition, in [3], the IC50 amounted to 3.36 µM and the Ki amounted to 1.86 µM. In [4], the IC50 was determined as 1.08 µM, affinity was put at a Ki of 0.6 µM, the “Selectivity index I/IX” value came to 1.99 and the “Selectivity index II/IX” value was found to be 3.10.
The compound `COc1ccc2[nH]c(=O)c(/C=N/c3c(N)[nH]c(=O)[nH]c3=O)cc2c1` [Compound 10h, (E)-6-Amino-5-(((6-methoxy-2-oxo-1,2-dihydroquinolin-3-yl)methylene)amino) pyrimidine-2,4(1H,3H)-dione] yielded a melting point of 275 to 277 °C. Moreover, in data set [1], the IC50 is 3.23 µM and the Ki was 1.78 µM. Moreover, in data set [2], the IC50 came out at 0.4 µM, the Ki came to 0.22 µM, the “Selectivity index I/XII” value is given as 8.00 and the “Selectivity index II/XII” value turned out to be 11.16. In data set [3], half-maximal inhibition (IC50) was put at 4.5 µM and the Ki was found to be 2.49 µM. Further, in data set [4], the IC50 was determined as 0.6 µM, the Ki was found to be 0.33 µM, the “Selectivity index I/IX” value is 5.39 and the “Selectivity index II/IX” value was 7.52.
`COc1ccc2[nH]c(=O)c(/C=N/c3c(N)n(Cc4ccccc4)c(=O)[nH]c3=O)cc2c1` [Compound 10i, (E)-6-Amino-1-benzyl-5-(((6-methoxy-2-oxo-1,2-dihydroquinolin-3-yl)methylene)amino) pyrimidine-2,4(1H,3H)-dione] yielded a melting point of 291 to 293 °C. Further, in data set [1], the IC50 was found to be 2.11 µM and affinity was put at a Ki of 1.17 µM. In addition, in [2], the IC50 is 0.23 µM, the Ki was 0.13 µM, the “Selectivity index I/XII” value came to 9.07 and the “Selectivity index II/XII” value was found to be 4.60. In [3], this compound came in with an IC50 of 1.07 µM and a Ki of 0.59 µM. Further, in [4], the IC50 was determined as 0.91 µM, the Ki stood at 0.51 µM, the “Selectivity index I/IX” value was determined as 2.31 and the “Selectivity index II/IX” value amounted to 1.17.
`CCn1c(N)c(/N=C/c2cc3cc(OC)ccc3[nH]c2=O)c(=O)[nH]c1=O` [Compound 10j, (E)-6-Amino-1-ethyl-5-(((6-methoxy-2-oxo-1,2-dihydroquinolin-3-yl)methylene)amino)pyrimidine-2,4(1H,3H)-dione] registered a melting point of 287 to 289 °C. In addition, in data set [1], the half-inhibitory concentration (IC50) was 0.89 µM and the affinity, expressed as Ki, was 0.49 µM. Besides, in [2], half-maximal inhibition (IC50) required 0.62 µM; the affinity, expressed as Ki, was 0.34 µM; the “Selectivity index I/XII” value amounted to 1.43; the “Selectivity index II/XII” value came out at 4.18. In data set [3], this compound came in with an IC50 of 2.6 µM and a Ki of 1.44 µM. For the same compound, in data set [4], the IC50 turned out to be 0.87 µM, the Ki turned out to be 0.48 µM, the “Selectivity index I/IX” value amounted to 1.02 and the “Selectivity index II/IX” value is 2.98.
As for `COc1ccc2[nH]c(=O)c(/C=N/c3c(N)n(C)c(=O)[nH]c3=O)cc2c1` [Compound 10k, (E)-6-Amino-5-(((6-methoxy-2-oxo-1,2-dihydroquinolin-3-yl)methylene)amino)-1-methyl pyrimidine-2,4(1H,3H)-dione], the melting point was in the range of 293 to 295 °C. In data set [1], this compound yielded a half-inhibitory concentration (IC50) of 2.12 µM and a Ki of 1.17 µM. Further, in [2], the midpoint of inhibition, the IC50, lay at 0.54 µM; the Ki worked out at 0.3 µM; the “Selectivity index I/XII” value was 3.96; the “Selectivity index II/XII” value is 12.26. Moreover, in data set [3], the midpoint of inhibition, the IC50, lay at 6.57 µM and the Ki worked out at 3.63 µM. Also, in data set [4], the IC50 was 1.28 µM, the Ki worked out at 0.71 µM, the “Selectivity index I/IX” value was determined as 1.66 and the “Selectivity index II/IX” value is listed as 5.14.
`CN[C@@H]1C[C@H]2O[C@@](C)([C@@H]1OC)n1c3ccccc3c3c4c(c5c6ccccc6n2c5c31)C(=O)NC4` [Staurosporine, staurosporine, reference compound]: the Bax in [5] was 381.8 ± 11.4 pg/mL; in [7] it was 310.5 ± 9.7 pg/mL. Moreover, the IC50 in data set [6] amounted to 6.92 ± 0.18 µM. The Bcl2 is 3.78 ± 0.14 nm/mL in data set [8] and 2.829 ± 0.07 nm/mL in [9].
